Measured values reported in PubChem BioAssay (NCI).
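The compound was tested at five concentrations on cells cultured in 96-well plates, with a 48-hour exposure period. GI50 marks 50% less growth. TGI denotes the concentration required for complete inhibition of growth.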

Assays:
Assay in all cases: growth of human tumour cells (NCI), 48 h
NCI-H226 lung = tested on: NCI-H226 lung
HCT-15 colon = tested on: HCT-15 colon
SF-268 CNS = tested on: SF-268 CNS
CCRF-CEM leukemia = tested on: CCRF-CEM leukemia
OVCAR-4 ovarian = tested on: OVCAR-4 ovarian
MCF7 breast = tested on: MCF7 breast
UO-31 renal = tested on: UO-31 renal
SK-OV-3 ovarian = tested on: SK-OV-3 ovarian
KM12 colon = tested on: KM12 colon
HT29 colon = tested on: HT29 colon
ACHN renal = tested on: ACHN renal
PC-3 prostate = tested on: PC-3 prostate
OVCAR-8 ovarian = tested on: OVCAR-8 ovarian
DU-145 prostate = tested on: DU-145 prostate
OVCAR-5 ovarian = tested on: OVCAR-5 ovarian
SK-MEL-28 melanoma = tested on: SK-MEL-28 melanoma
MDA-MB-231 breast = tested on: MDA-MB-231 breast
NCI/ADR-RES ovarian = tested on: NCI/ADR-RES ovarian
EKVX NSCLC = tested on: EKVX NSCLC
LOX IMVI melanoma = tested on: LOX IMVI melanoma
UACC-62 melanoma = tested on: UACC-62 melanoma
M14 melanoma = tested on: M14 melanoma
SNB-19 CNS = tested on: SNB-19 CNS
BT-549 breast = tested on: BT-549 breast
A498 renal = tested on: A498 renal
CAKI-1 renal = tested on: CAKI-1 renal
NCI-H460 lung = tested on: NCI-H460 lung
HOP-92 NSCLC = tested on: HOP-92 NSCLC
SN12C renal = tested on: SN12C renal
MDA-MB-435 = tested on: MDA-MB-435
SK-MEL-5 melanoma = tested on: SK-MEL-5 melanoma
T-47D breast = tested on: T-47D breast
HS 578T breast = tested on: HS 578T breast
MDA-MB-468 breast = tested on: MDA-MB-468 breast
RXF 393 renal = tested on: RXF 393 renal
HL-60(TB) leukemia = tested on: HL-60(TB) leukemia
MALME-3M melanoma = tested on: MALME-3M melanoma
786-0 renal = tested on: 786-0 renal
IGROV1 ovarian = tested on: IGROV1 ovarian
MOLT-4 leukemia = tested on: MOLT-4 leukemia
SF-295 CNS = tested on: SF-295 CNS
TK-10 renal = tested on: TK-10 renal
HOP-62 NSCLC = tested on: HOP-62 NSCLC
OVCAR-3 ovarian = tested on: OVCAR-3 ovarian
SNB-75 CNS = tested on: SNB-75 CNS
UACC-257 melanoma = tested on: UACC-257 melanoma
SK-MEL-2 melanoma = tested on: SK-MEL-2 melanoma
HCC-2998 colon = tested on: HCC-2998 colon
NCI-H23 lung = tested on: NCI-H23 lung
NCI-H522 lung = tested on: NCI-H522 lung
COLO 205 colon = tested on: COLO 205 colon
K-562 leukemia = tested on: K-562 leukemia
SR leukemia = tested on: SR leukemia
HCT-116 colon = tested on: HCT-116 colon
U251 CNS = tested on: U251 CNS
RPMI-8226 leukemia = tested on: RPMI-8226 leukemia
SF-539 CNS = tested on: SF-539 CNS

Compound: Cn1cc(-c2cc3nc(-c4c[nH]c5ccccc45)cc(N)n3n2)c2cc(Cl)ccc21
- GI50 (NCI-H226 lung): 16.9 µM
- TGI (NCI-H226 lung): 44 µM
- GI50 (HCT-15 colon): 1620 nM
- TGI (HCT-15 colon): 3.35 µM
- GI50 (SF-268 CNS): 2160 nM
- TGI (SF-268 CNS): 5.44 µM
- GI50 (CCRF-CEM leukemia): 4.4 µM
- TGI (CCRF-CEM leukemia): > 100 µM
- GI50 (OVCAR-4 ovarian): 1820 nM
- TGI (OVCAR-4 ovarian): 3.49 µM
- GI50 (MCF7 breast): 1660 nM
- TGI (MCF7 breast): 3.31 µM
- GI50 (UO-31 renal): 1720 nM
- TGI (UO-31 renal): 3.25 µM
- GI50 (SK-OV-3 ovarian): 2240 nM
- TGI (SK-OV-3 ovarian): 5.62 µM
- GI50 (KM12 colon): 1990 nM
- TGI (KM12 colon): 4.24 µM
- GI50 (HT29 colon): 1930 nM
- TGI (HT29 colon): 3.99 µM
- GI50 (ACHN renal): 1750 nM
- TGI (ACHN renal): 3.41 µM
- GI50 (PC-3 prostate): 2970 nM
- TGI (PC-3 prostate): 9.37 µM
- GI50 (OVCAR-8 ovarian): 2230 nM
- TGI (OVCAR-8 ovarian): 5.07 µM
- GI50 (DU-145 prostate): 3.62 µM
- TGI (DU-145 prostate): 13.4 µM
- GI50 (OVCAR-5 ovarian): 1810 nM
- TGI (OVCAR-5 ovarian): 4.22 µM
- GI50 (SK-MEL-28 melanoma): 1700 nM
- TGI (SK-MEL-28 melanoma): 3.12 µM
- GI50 (MDA-MB-231 breast): 2310 nM
- TGI (MDA-MB-231 breast): 5.24 µM
- GI50 (NCI/ADR-RES ovarian): 2460 nM
- TGI (NCI/ADR-RES ovarian): 6.8 µM
- GI50 (EKVX NSCLC): 2120 nM
- TGI (EKVX NSCLC): 6.03 µM
- GI50 (LOX IMVI melanoma): 1710 nM
- TGI (LOX IMVI melanoma): 3.15 µM
- GI50 (UACC-62 melanoma): 1800 nM
- TGI (UACC-62 melanoma): 3.51 µM
- GI50 (M14 melanoma): 1770 nM
- TGI (M14 melanoma): 3.36 µM
- GI50 (SNB-19 CNS): 3.29 µM
- TGI (SNB-19 CNS): 13.8 µM
- GI50 (BT-549 breast): 12.9 µM
- TGI (BT-549 breast): 32.2 µM
- GI50 (A498 renal): 3.16 µM
- TGI (A498 renal): 11.1 µM
- GI50 (CAKI-1 renal): 1660 nM
- TGI (CAKI-1 renal): 3.2 µM
- GI50 (NCI-H460 lung): 2360 nM
- TGI (NCI-H460 lung): 5.56 µM
- GI50 (HOP-92 NSCLC): 1990 nM
- TGI (HOP-92 NSCLC): 4.1 µM
- GI50 (SN12C renal): 1900 nM
- TGI (SN12C renal): 4.15 µM
- GI50 (MDA-MB-435): 1790 nM
- TGI (MDA-MB-435): 3.32 µM
- GI50 (SK-MEL-5 melanoma): 1980 nM
- TGI (SK-MEL-5 melanoma): 4.09 µM
- GI50 (T-47D breast): 1760 nM
- TGI (T-47D breast): 3.82 µM
- GI50 (HS 578T breast): 2380 nM
- TGI (HS 578T breast): 6.49 µM
- GI50 (MDA-MB-468 breast): 1620 nM
- TGI (MDA-MB-468 breast): 3.37 µM
- GI50 (RXF 393 renal): 1870 nM
- TGI (RXF 393 renal): 3.81 µM
- GI50 (HL-60(TB) leukemia): 1940 nM
- TGI (HL-60(TB) leukemia): 5.01 µM
- GI50 (MALME-3M melanoma): 1700 nM
- TGI (MALME-3M melanoma): 3.26 µM
- GI50 (786-0 renal): 1640 nM
- TGI (786-0 renal): 3.12 µM
- GI50 (IGROV1 ovarian): 2530 nM
- TGI (IGROV1 ovarian): 7.62 µM
- GI50 (MOLT-4 leukemia): 2710 nM
- TGI (MOLT-4 leukemia): 11.1 µM
- GI50 (SF-295 CNS): 1780 nM
- TGI (SF-295 CNS): 3.53 µM
- GI50 (TK-10 renal): 2030 nM
- TGI (TK-10 renal): 5.36 µM
- GI50 (HOP-62 NSCLC): 2120 nM
- TGI (HOP-62 NSCLC): 5.31 µM
- GI50 (OVCAR-3 ovarian): 2230 nM
- TGI (OVCAR-3 ovarian): 4.76 µM
- GI50 (SNB-75 CNS): 1520 nM
- TGI (SNB-75 CNS): 3.06 µM
- GI50 (UACC-257 melanoma): 1680 nM
- TGI (UACC-257 melanoma): 3.25 µM
- GI50 (SK-MEL-2 melanoma): 2110 nM
- TGI (SK-MEL-2 melanoma): 4.63 µM
- GI50 (HCC-2998 colon): 1870 nM
- TGI (HCC-2998 colon): 3.5 µM
- GI50 (NCI-H23 lung): 2260 nM
- TGI (NCI-H23 lung): 5.58 µM
- GI50 (NCI-H522 lung): 1750 nM
- TGI (NCI-H522 lung): 3.75 µM
- GI50 (COLO 205 colon): 1890 nM
- TGI (COLO 205 colon): 3.59 µM
- GI50 (K-562 leukemia): 2260 nM
- TGI (K-562 leukemia): 6.3 µM
- GI50 (SR leukemia): 2610 nM
- TGI (SR leukemia): 9.11 µM
- GI50 (HCT-116 colon): 1750 nM
- TGI (HCT-116 colon): 3.24 µM
- GI50 (U251 CNS): 1800 nM
- TGI (U251 CNS): 3.61 µM
- GI50 (RPMI-8226 leukemia): 2940 nM
- TGI (RPMI-8226 leukemia): 9.18 µM
- GI50 (SF-539 CNS): 1730 nM
- TGI (SF-539 CNS): 3.19 µM
